Laboratory results taken from patent publication US20250144067A1, “PERSONALIZED STARVATION THERAPY FOR CANCER” (Faeth Therapeutics, Inc., priority 2021, published 2025).
Counter-ions that a name gives are not always drawn. Like-named read-outs stand apart in the source and are kept apart here.

Key:
[1] = system: NCI-H292 lung cancer cells; assay: FDA drug screening, complete media vs cholesterol-free media without statin (TABLE 1); format: cell-based, human
[2] = system: NCI-H292 lung cancer cells; assay: FDA drug screening, complete media vs cholesterol-free media with simvastatin (TABLE 2); format: cell-based, human
[3] = Complete minus Cholesterol-free, […]
[4] = NCI-H292 cells, FDA drug library screen, cholesterol-free media without statin
[5] = NCI-H292 cells, FDA drug library screen, complete media
[6] = NCI-H292 cells, FDA drug library screen, cholesterol-free media with simvastatin 0.04 μM
[7] = complete media vs cholesterol-free media + simvastatin (0.04 μM), […]
[8] = Complete minus Cholesterol-free, >0 enhanced anti-cancer activity, about 0 neutral, <0 antagonist
[9] = NCI-H292 cells, cholesterol-free media without statin
[10] = NCI-H292 cells, FDA library drug in cholesterol-free media with simvastatin 0.04 μM
[11] = NCI-H292 cells, FDA library drug in complete media
[12] = complete media vs cholesterol-free media + simvastatin (0.04 μM), >0 enhanced anti-cancer activity, about 0 neutral, <0 antagonist
[13] = NCI-H292 cells, drug in cholesterol-free media with simvastatin 0.04 μM
[14] = NCI-H292 cells, drug in complete media
[15] = complete vs cholesterol-free media, greater than 0 enhanced anti-cancer activity, about 0 neutral, below 0 antagonists
[16] = complete media minus cholesterol-free media + simvastatin, >0 enhanced anti-cancer activity, about 0 neutral, <0 antagonist
[17] = NCI-H292 cells, cholesterol-free media without statin, FDA drug library screen
[18] = NCI-H292 cells, complete media, FDA drug library screen
[19] = NCI-H292 cells, cholesterol-free media with simvastatin 0.04 μM, FDA drug library screen (TABLE 2)
[20] = NCI-H292 cells, complete media, FDA drug library screen (TABLE 2)
[21] = complete media minus cholesterol-free media + simvastatin (0.04 μM), >0 enhanced anti-cancer activity, about 0 neutral, <0 antagonist
[22] = complete vs cholesterol-free media, >0 enhanced anti-cancer activity, about 0 neutral, <0 antagonist
[23] = NCI-H292 cells, cholesterol-free media with simvastatin 0.04 μM, cell growth value in FDA drug screen
[24] = NCI-H292 cells, complete media, cell growth value in FDA drug screen

| Compound | Cholesterol-free media + simvastatin (0.04 μM) [2, 6] | Complete Media [2, 5] | Difference [1, 8] | Cholesterol-free [1, 9] | Complete ([1]; NCI-H292 cells, complete media) | Difference [2, 12] | Difference [2, 16] | Cholesterol-free [1, 17] | Complete [1, 18] | further results |
| --- | --- | --- | --- | --- | --- | --- | --- | --- | --- | --- |
| CC(=O)O.CN1C(=O)C[C@@H](C(=O)N[C@@H](Cc2cnc[nH]2)C(=O)N2CCC[C@H]2C(N)=O)NC1=O [Taltirelin (acetate)] | 1.154 | 1.062 |  |  |  |  |  |  |  | Difference [1, 3]: −0.12; Cholesterol-free [1, 4]: 1.092; Complete [1, 5]: 0.9679; Difference [2, 7]: −0.09 |
| C#C[C@]1(O)CC[C@H]2[C@@H]3CCC4=CC(=O)CC[C@@H]4[C@H]3CC[C@@]21CC [Levonorgestrel] |  |  | −0.21 | 1.107 | 0.8992 | −0.33 |  |  |  | Cholesterol-free media + simvastatin (0.04 μM) [2, 10]: 1.877; Complete Media [2, 11]: 1.543 |
| CCCOc1ccc2c(c1)CC[C@@H]1[C@@H]2CC[C@]2(C)[C@@H](OC)CC[C@@H]12 [Promestriene] |  |  |  |  |  |  |  |  |  | Difference [1, 3]: −0.77; Cholesterol-free ([1]; NCI-H292 cells in cholesterol-free media without statin): 1.741; Complete ([1]; NCI-H292 cells in complete media): 0.9695; Cholesterol-free media + simvastatin (0.04 μM) ([2]; NCI-H292 cells, cholesterol-free media with simvastatin 0.04 μM, […]): 0.8092; Complete Media ([2]; NCI-H292 cells, complete media, […]): 0.9277; Difference ([2]; complete media minus cholesterol-free media + simvastatin, […]): 0.12 |
| CCCCCCO[C@@H](C)c1cccc(-c2csc(NC(=O)c3cc(Cl)c(/C=C(\C)C(=O)O)c(Cl)c3)n2)c1OC [Lusutrombopag] |  |  | −0.26 | 1.148 | 0.8829 | −0.16 |  |  |  | Cholesterol-free media + simvastatin (0.04 μM) [2, 13]: 0.9436; Complete Media [2, 14]: 0.7827 |
| c1ccc(-c2ccc(C(c3ccccc3)n3ccnc3)cc2)cc1 (stereo not drawn) [Bifonazole] | 0.4379 | 0.7844 |  | 1.572 | 1.228 |  | 0.35 |  |  | Difference [1, 15]: −0.34 |
| CC(C)C[C@H](NC(=O)[C@H](Cc1ccccc1)NC(=O)c1cnccn1)B(O)O [Bortezomib] |  |  | 0.00 |  |  |  |  | 0.006863 | 0.00697 | Cholesterol-free media + simvastatin (0.04 μM) [2, 19]: 0.003233; Complete Media [2, 20]: −0.017; Difference [2, 21]: −0.02 |
| Cc1cc(=O)oc2cc(O)ccc12 [4-Methylumbelliferone] | 1.129 | 1.057 |  |  |  | −0.07 |  | 0.6739 | 1.119 | Difference [1, 22]: 0.45 |
| c1ccc([C@H]2CN3CCSC3=N2)cc1 [Levamisole (hydrochloride)] |  |  |  |  |  | −0.40 |  | 1.001 | 1.665 | Difference [1, 22]: 0.66; Cholesterol-free media + simvastatin (0.04 μM) [2, 10]: 1.301; Complete Media [2, 11]: 0.9046 |
| Nc1cc(N2CCCCC2)nc(N)[n+]1OS(=O)(=O)[O-] [Minoxidil sulfate] | 1.144 | 1.047 | −0.27 | 1.329 | 1.056 | −0.10 |  |  |  |  |
| Nc1ccc(S(=O)(=O)Nc2ncccn2)cc1 [Sulfadiazine (sodium)] |  |  |  |  |  | −0.26 |  |  |  | Difference ([1]; Complete minus Cholesterol-free, greater than 0 enhanced anti-cancer activity, about 0 neutral, below 0 antagonist): −0.12; Cholesterol-free [1, 4]: 1.217; Complete [1, 5]: 1.095; Cholesterol-free media + simvastatin (0.04 μM) [2, 13]: 1.234; Complete Media [2, 14]: 0.9756 |
| COc1ccc2c(c1)c(CC(=O)O)c(C)n2C(=O)c1ccc(Cl)cc1 [Indomethacin (sodium hydrate)] |  |  |  | 1.164 | 0.8005 |  |  |  |  | Difference [1, 15]: −0.36; Cholesterol-free media + simvastatin (0.04 μM) [2, 19]: 0.9744; Complete Media [2, 20]: 0.911; Difference [2, 21]: −0.06 |
| COc1ccccc1OCC(O)CO (stereo not drawn) [Guaifenesin] | 1.078 | 1.326 |  | 1.204 | 0.8523 |  | 0.25 |  |  | Difference [1, 15]: −0.35 |
| CCC(=O)O[C@]1(C(C)=O)CC[C@H]2[C@@H]3CCC4=CC(=O)C=C[C@]4(C)[C@H]3[C@@H](O)C[C@@]21C [Deprodone propionate] |  |  |  |  |  |  | 0.05 | 0.6965 | 0.786 | Difference [1, 22]: 0.09; Cholesterol-free media + simvastatin (0.04 μM) [2, 23]: 0.6417; Complete Media [2, 24]: 0.6907 |
| C[C@@H]1C[C@H]2[C@@H]3CCC4=CC(=O)C=C[C@]4(C)[C@@]3(F)[C@@H](O)C[C@]2(C)[C@H]1C(=O)CO [Desoximetasone] |  |  | −0.06 |  |  |  |  | 0.8359 | 0.7716 | Cholesterol-free media + simvastatin (0.04 μM) [2, 19]: 0.8194; Complete Media [2, 20]: 0.8184; Difference [2, 21]: 0.00 |
| CN1[C@@H]2CC[C@H]1C[C@@H](OC(=O)[C@H](CO)c1ccccc1)C2 [L-Hyoscyamine] |  |  |  | 1.23 | 0.9714 |  |  |  |  | Difference [1, 3]: −0.26; Cholesterol-free media + simvastatin (0.04 μM) [2, 13]: 1.192; Complete Media [2, 14]: 1.027; Difference [2, 7]: −0.16 |
| Imatinib (Mesylate) | 1.089 | 0.9411 |  |  |  | −0.15 |  | 0.5677 | 1.017 | Difference [1, 22]: 0.45 |
| Sulconazole (nitrate) | 0.3022 | 0.9753 | 0.04 |  |  |  | 0.67 | 0.9221 | 0.9667 |  |
| Tedizolid (phosphate) |  |  | −0.01 |  |  |  | 0.04 | 0.8406 | 0.8345 | Cholesterol-free media + simvastatin (0.04 μM) [2, 23]: 0.7735; Complete Media [2, 24]: 0.8096 |
| COP(=S)(OC)Oc1ccc([N+](=O)[O-])c(C)c1 [Fenitrothion] | 1.585 | 1.426 |  | 0.8622 | 0.6445 |  |  |  |  | Difference [1, 3]: −0.22; Difference [2, 7]: −0.16 |
| O=C(O[C@H]1C[N+]2(CCCOc3ccccc3)CCC1CC2)C(O)(c1cccs1)c1cccs1.[Br-] [Aclidinium (Bromide)] |  |  |  |  |  |  |  |  |  | Cholesterol-free [1]: 1.253; Complete [1]: 0.9873; Difference [1]: −0.27; Cholesterol-free media + simvastatin (0.04 μM) [2]: 0.8781; Complete Media [2]: 0.7357; Difference [2]: −0.14 |
| Cc1cnc(Nc2ccc(OCCN3CCCC3)cc2)nc1Nc1cccc(S(=O)(=O)NC(C)(C)C)c1 [Fedratinib] |  |  | −0.27 | 0.5626 | 0.2926 | −0.39 |  |  |  | Cholesterol-free media + simvastatin (0.04 μM) [2, 10]: 0.6759; Complete Media [2, 11]: 0.284 |
| COC1=C(OC)C(=O)C(CCCCCCCCCCO)=C(C)C1=O [Idebenone] |  |  | −0.21 | 1.239 | 1.029 |  | 0.08 |  |  | Cholesterol-free media + simvastatin (0.04 μM) [2, 23]: 1.049; Complete Media [2, 24]: 1.125 |
| OC[C@@H](O)[C@@H](O)[C@H](O)[C@H](O)CO [D-Mannitol] | 1.033 | 1.748 |  |  |  |  | 0.71 | 0.8621 | 1.662 | Difference [1, 22]: 0.80 |
| CC[C@@H](CO)NCCN[C@@H](CC)CO [Ethambutol (dihydrochloride)] |  |  |  |  |  | −0.41 |  | 0.4829 | 1.206 | Difference [1, 22]: 0.72; Cholesterol-free media + simvastatin (0.04 μM) [2, 10]: 1.428; Complete Media [2, 11]: 1.016 |
| CCCCCCCCCCC[C@@H](C[C@@H]1OC(=O)[C@H]1CCCCCC)OC(=O)[C@H](CC(C)C)NC=O [Orlistat] | 1.19 | 1.622 |  |  |  |  | 0.43 | 1.018 | 1.513 | Difference [1, 22]: 0.49 |
| O=C(N/N=C/c1ccc([N+](=O)[O-])o1)c1ccc(O)cc1 [Nifuroxazide] |  |  | −0.04 |  |  |  | 0.10 | 0.9553 | 0.9139 | Cholesterol-free media + simvastatin (0.04 μM) [2, 23]: 1.161; Complete Media [2, 24]: 1.265 |
| C[C@@H]1C[C@H]2[C@@H]3CCC4=CC(=O)C=C[C@]4(C)[C@@]3(Cl)[C@@H](O)C[C@]2(C)[C@@]1(OC(=O)c1ccco1)C(=O)CCl [Mometasone furoate] |  |  | −0.24 | 0.8128 | 0.5699 |  | 0.13 |  |  | Cholesterol-free media + simvastatin (0.04 μM) [2, 23]: 0.7611; Complete Media [2, 24]: 0.8877 |
| C/C(=C\c1csc(C)n1)[C@@H]1C[C@@H]2O[C@]2(C)CCC[C@H](C)[C@H](O)[C@@H](C)C(=O)C(C)(C)[C@@H](O)CC(=O)N1 [Ixabepilone] |  |  | −0.01 |  |  |  |  | 0.1019 | 0.09155 | Cholesterol-free media + simvastatin (0.04 μM) [2, 19]: 0.1261; Complete Media [2, 20]: 0.1336; Difference [2, 21]: 0.01 |
